Measurements from patent publication US6417187B2, “1,2,4-triazole based compounds that can be used as insecticides or acaricides and processes” (Dow AgroSciences LLC, priority 2000, dated 2002).

Assays:
Assay type in all cases: in vivo
[1] = tested on: cabbage looper (Trichoplusia ni); experiment: Insecticidal test for cabbage looper (cabbage leaf-disc dip); settings: for pest or weed control at 400 ppm: Trichoplusia ni, 120 h, read-out: CL: activity at 400 ppm against cabbage looper (% Control rating)
[2] = tested on: cotton aphid (Aphis gossvpii); experiment: Insecticidal test for cotton aphid (squash cotyledon spray); settings: for pest or weed control at 50 ppm: 72 h, read-out: CA: activity at 50 ppm against cotton aphid (% Control rating)
[3] = tested on: Brown Planthopper (Nilaparvata lugens); experiment: Insecticidal test for Brown Planthopper (rice seedling roots in test solution)
[4] = tested on: Green Leafhopper (Nephotettix cincticeps); experiment: Insecticidal test for Green Leafhopper (rice seedling roots in test solution)
[5] = tested on: beet armyworm (Spodoptera exigua); experiment: Insecticidal test for beet armyworm (treated lepidopteran diet); settings: for pest or weed control at 400 ppm: Spodoptera exigua, 120 h, read-out: BAW: activity at 400 ppm against beet armyworm (% Control rating)
[6] = tested on: Sweetpotato Whitefly (Bemisia tabacia); experiment: Insecticidal test for Sweetpotato Whitefly (cotton plant spray); settings: for pest or weed control at 200 ppm: Bemisia, 312 h, read-out: WF: activity at 200 ppm against whitefly (% Control rating)
[7] = 400 ppm, cabbage leaf-dip, 2nd instar larvae, 5 days
[8] = 50 ppm spray on infested squash cotyledons, 3 days, population reduction versus untreated
[9] = 10 ppm test solution, rice seedling roots, 3rd instar nymphs, mortality at 6 days
[10] = 400 ppm, treated diet, second-instar larvae, 5 days
[11] = 200 ppm spray on cotton plants, 13 days, reduction of large nymphs

Row | SMILES | BPH: activity at 10 ppm against brown planthopper (% Control rating) [3, 9] | GLH: activity at 10 ppm against green leafbopper (% Control rating) [4, 9] | BAW: activity at 400 ppm against beet armyworm (% Control rating) [5, 10] | CL: activity at 400 ppm against cabbage looper (% Control rating) [1, 7] | CA: activity at 50 ppm against cotton aphid (% Control rating) [2, 8] | WF: activity at 200 ppm against whitefly (% Control rating) [6, 11] | also measured
1 | C#Cc1sc(-c2nc(-c3c(F)cccc3Cl)nn2C)c(Cl)c1Cl [Compound 2, 1-Methyl-3-(2-chloro-6-fluorophenyl)-5-(3,4-dichloro-5-ethynvl-thien-2-yl)[1,2,4]triazole] | D (60-69) | F (less than 50) |  |  |  |  | pest or weed control at 400 ppm [1, 7]: < 50%; pest or weed control at 50 ppm [2, 8]: 60 to 69%
2 | Cn1nc(-c2c(F)cccc2Cl)nc1-c1sc(C#Cc2ccc(F)cc2)c(Cl)c1Cl [Compound 12] | F (less than 50) | F (less than 50) | A (90-100) | A (90-100) | C (70-79) | F (less than 50) | 
3 | Cn1nc(-c2c(F)cccc2Cl)nc1-c1sc(C#Cc2ccc(-c3ccccc3)cc2)c(Cl)c1Cl [Compound 16] | F (less than 50) | F (less than 50) | F (less than 50) | D (60-69) | F (less than 50) | F (less than 50) | 
4 | Cn1nc(-c2c(F)cccc2Cl)nc1-c1sc(C#Cc2cc(Cl)c(OCC(F)(F)F)c(Cl)c2)c(Cl)c1Cl [Compound 22] | F (less than 50) | F (less than 50) |  |  | F (less than 50) | D (60-69) | 
5 | Cn1nc(-c2c(F)cccc2Cl)nc1-c1sc(C#Cc2ccc(F)cc2F)c(Cl)c1Cl [Compound 23, 3-(2-chloro-6-fluorophenyl)-5-(5-(2,4-difluorophenylalkynyl)-3,4-dichloro-2-thiophene)-1-methyl-1H-1,2,4-triazole] |  | F (less than 50) |  |  |  |  | pest or weed control at 400 ppm [5, 10]: 90 to 100%; pest or weed control at 400 ppm [1, 7]: 90 to 100%; pest or weed control at 50 ppm [2, 8]: < 50%; pest or weed control at 200 ppm [6, 11]: < 50%
6 | Cn1nc(-c2c(F)cccc2Cl)nc1-c1sc(C#Cc2ccccn2)c(Cl)c1Cl [Compound 33] | F (less than 50) | F (less than 50) |  |  | F (less than 50) | D (60-69) | 
7 | Cc1ccsc1C#Cc1sc(-c2nc(-c3c(F)cccc3Cl)nn2C)c(Cl)c1Cl [Compound 36] | D (60-69) | D (60-69) |  | A (90-100) | E (50-59) | F (less than 50) | 
8 | Cc1cccnc1C#Cc1sc(-c2nc(-c3c(F)cccc3Cl)nn2C)c(Cl)c1Cl [Compound 45] | F (less than 50) | F (less than 50) |  |  | F (less than 50) | F (less than 50) | 
9 | Cn1nc(-c2c(F)cccc2Cl)nc1-c1sc(C#Cc2ccsc2)c(Cl)c1Cl [Compound 46] | F (less than 50) |  | D (60-69) | D (60-69) | E (50-59) | F (less than 50) | 
10 | COc1ccc(C#Cc2sc(-c3nc(-c4c(F)cccc4Cl)nn3C)c(Cl)c2Cl)cc1Cl [Compound 48] | F (less than 50) |  | A (90-100) | A (90-100) | D (60-69) |  | 
11 | Cc1ccc(C#Cc2sc(-c3nc(-c4c(F)cccc4Cl)nn3C)c(Cl)c2Cl)nc1 [Compound 58] | F (less than 50) | F (less than 50) |  |  | F (less than 50) | F (less than 50) | 
12 | Cn1nc(-c2c(F)cccc2Cl)nc1-c1sc(C#Cc2ccc(Br)cc2OC(F)(F)F)c(Cl)c1Cl [Compound 59] | F (less than 50) | F (less than 50) |  |  | F (less than 50) | F (less than 50) | 
13 | CCOc1ccc(C#Cc2sc(-c3nc(-c4c(F)cccc4Cl)nn3C)c(Cl)c2Cl)cc1F [Compound 60] |  |  | A (90-100) | A (90-100) | F (less than 50) | E (50-59) | 
14 | Cn1nc(-c2c(F)cccc2Cl)nc1-c1sc(C#Cc2ccc(Cl)cn2)c(Cl)c1Cl [Compound 61] | F (less than 50) | F (less than 50) |  |  | F (less than 50) | F (less than 50) | 
15 | Cn1nc(-c2c(F)cccc2Cl)nc1-c1sc(C#Cc2ccc(C(F)(F)F)cn2)c(Cl)c1Cl [Compound 62] | F (less than 50) | F (less than 50) |  |  | F (less than 50) | F (less than 50) | 
16 | Cn1nc(-c2c(F)cccc2Cl)nc1-c1sc(C#Cc2cnc(N3CCOCC3)nc2)c(Cl)c1Cl [Compound 63] |  |  | D (60-69) | A (90-100) |  | F (less than 50) | 
17 | Cn1nc(-c2c(F)cccc2Cl)nc1-c1sc(C#Cc2cnc(N3CCCCC3)nc2)c(Cl)c1Cl [Compound 64] |  |  | B (80-89) | A (90-100) |  | F (less than 50) | 
18 | Cn1nc(-c2c(F)cccc2Cl)nc1-c1ccc(C#Cc2ccccc2)s1 [Compound 68] | F (less than 50) | F (less than 50) |  |  | A (90-100) | F (less than 50) | 
19 | CCCc1ccc(C#Cc2sc(-c3nc(C)nn3C)c(Cl)c2Cl)cc1 [Compound 75] | C (70-79) | F (less than 50) |  |  | F (less than 50) | F (less than 50) | 
20 | CCCc1ccc(C#Cc2sc(-c3nc(-c4ccccc4F)nn3C)c(Cl)c2Cl)cc1 [Compound 76] | F (less than 50) | F (less than 50) | A (90-100) |  |  | F (less than 50) | 
21 | Cc1nc(-c2sc(C#Cc3ccc(F)cc3)c(Cl)c2Cl)n(C)n1 [Compound 78] | F (less than 50) | F (less than 50) |  |  |  |  | pest or weed control at 400 ppm [5, 10]: 90 to 100%; pest or weed control at 50 ppm [2, 8]: < 50%; pest or weed control at 200 ppm [6, 11]: 60 to 69%
22 | Cn1nc(-c2ccccc2F)nc1-c1sc(C#Cc2ccc(F)cc2)c(Cl)c1Cl [Compound 79] | F (less than 50) | F (less than 50) |  |  | F (less than 50) | D (60-69) | 
23 | CCCCn1nc(-c2c(F)cccc2Cl)nc1-c1sc(C#Cc2ccc(CCC)cc2)c(Cl)c1Cl [Compound 82] |  |  | D (60-69) | A (90-100) | F (less than 50) | F (less than 50) | 
24 | CCCc1ccc(C#Cc2ccc(-c3nc(-c4c(F)cccc4Cl)nn3C)c(Cl)c2Cl)cc1 [Compound 90] |  |  |  |  |  |  | BAW: activity at 400 ppm against beet armyworm (% Control rating) ([5]; in vivo): A (key: A: 90-100; B: 80-89; C: 70-79; D: 60-69; E: 50-59; F: less than 50; G: inactive); CL: activity at 400 ppm against cabbage looper (% Control rating) ([1]; in vivo): A (key: A: 90-100; B: 80-89; C: 70-79; D: 60-69; E: 50-59; F: less than 50; G: inactive); CA: activity at 50 ppm against cotton aphid (% Control rating) ([2]; in vivo): B (key: A: 90-100; B: 80-89; C: 70-79; D: 60-69; E: 50-59; F: less than 50; G: inactive); WF: activity at 200 ppm against whitefly (% Control rating) ([6]; in vivo): F (key: A: 90-100; B: 80-89; C: 70-79; D: 60-69; E: 50-59; F: less than 50; G: inactive); BPH: activity at 10 ppm against brown planthopper (% Control rating) ([3]; in vivo): E (key: A: 90-100; B: 80-89; C: 70-79; D: 60-69; E: 50-59; F: less than 50; G: inactive); GLH: activity at 10 ppm against green leafbopper (% Control rating) ([4]; in vivo): F (key: A: 90-100; B: 80-89; C: 70-79; D: 60-69; E: 50-59; F: less than 50; G: inactive)
